Assay results from patent US20190350964A1, “ANTI-CANCER COMPOUNDS AND USES THEREOF” (NATIONAL UNIVERSITY OF SINGAPORE, priority 2016, published 2019).

How the values were obtained:
NCC24 = assay: MTT cytotoxicity test (GI50); type: cell-based; conditions: Homo sapiens; NCC24, cancer, gastric; MTT 72 h
MDA-MB-231 = assay: MTT cytotoxicity test (GI50); type: cell-based; conditions: Homo sapiens; MDA-MB-231, cancer, breast; MTT 72 h
[1] = tested on: HCT-15 human colon adenocarcinoma cells; assay: HCT-15 tumor xenograft in nude mice; type: in vivo, mouse
Description: BALB/c athymic female nude mice (nu/nu, 5-7 weeks) (InVivos) were kept under specific pathogen-free (SPF) conditions. The care and use of mice was approved by the Duke-NUS IACUC in accordance with protocol 2015/SHS/1030. HCT15 human colon cancer cells (5×10^6) or MDA-MB-231 human breast cancer cells (4×10^6 with Matrigel) were subcutaneously injected into the flanks of mice. When the mean tumor volume reached 100-300 mm^3 (Day 1), the mice were randomly divided into experimental groups of 6 mice by an algorithm that moves animals around to achieve the best case distribution to assure that each treatment group has similar mean tumor burden and standard deviation. No statistical method was used to predetermine sample size. […] Paclitaxel (Cayman Chemical) was dissolved in ethanol:Tween 80=1:3 (v/v) solution followed by the addition of a 5% glucose solution (final ratio, ethanol:Tween 80:5% glucose=5:15:80) and injected via the tail vain (IV). Tumor dimensions were measured using calipers, and tumor volume (mm^3) was calculated using the formula width^2×length/2 in a blinded fashion. On Day 12 (HCT15) or Day 16 (MDA-MB-231), mice were sacrificed. Tumors were collected, fixed overnight in 4% paraformaldehyde (PFA) and stored in 70% ethanol. For immunostaining, antigens were retrieved from formaldehyde-fixed, paraffin-embedded tumor tissue sections for 30 min by boiling in sodium citrate buffer (pH 6.0) using a microwave histoprocessor (Milestone). Endogenous peroxidase activity in tissue sections was depleted by treatment with 3% hydrogen peroxide (H2O2 in 1×TBS) for 20 min at room temperature. Tumor tissue sections were incubated overnight with anti-β-tubulin (Abcam; 1:100 in 3% BSA/TBS-Tween 20) at 4° C. followed by incubation with goat anti-rabbit FITC-conjugated secondary antibody (Invitrogen; 1:200 in 3% BSA/TBS) for 1 h at 25° C. After dehydration treatment, coverslips were mounted using DAPI mounting medium (Vector). Images were acquired in 3D-SIM mode using a super resolution microscope (Nikon), and the number of cells with either 2 or mitotic-spindles was quantified (n>50 cells per section, 6-7 sections per treatment). For detection of apoptosis using the TUNEL method, the ApopTag Plus Peroxidase In Situ Apoptosis Detection Kit (Millipore) was used for formaldehyde-fixed, paraffin-embedded tumor tissue sections treated with b5 (80 mg/kg, IP) or control vehicle for 12 days. Slide scans were acquired using a MetaSystems Metafer built on a Zeiss Axiolmager Z.2 upright microscope. The system is equipped with a CoolCubel camera and a Zeiss Plan-Neofluar 20×/0.5 Ph2 objective lens. Image acquisition was controlled with Metafer4 software, and stitching was performed with the VSlide software and further processed using the open source software FIJI. A custom macro was used to batch process the images in the following sequence: Gaussian filter, color deconvolution of hematoxylin and DAB, thresholding the hematoxylin image, watershed to separate touching nuclei, and then count the number of hematoxylin-stained nuclei. For the DAB image, a fixed threshold was used, watershed applied and the number of DAB stained nuclei counted. In all cases, no data or animals were excluded and results are expressed as mean and standard deviation of the mean.

NCC59 = assay: MTT cytotoxicity test (GI50); type: cell-based; conditions: Homo sapiens; NCC59, cancer, gastric; MTT 72 h
SCH = assay: MTT cytotoxicity test (GI50); type: cell-based; conditions: Homo sapiens, cancer, gastric, MTT 72 h
[2] = tested on: normal and transformed BJ cells; assay: a131 SAR analysis: pH3(Ser10) immunoblot, BrdU incorporation, subG1 FACS; type: cell-based, human; set-up: key: Group 1: possess the dual-inhibitory properties of both causing the arrest of normal BJ cells at the G1/S phase and also causing mitotic arrest/catastrophe in transformed BJ cells; Group 2: only cause the arrest of normal BJ cells at the G1/S phase; Group 3: cause mitotic arrest/catastrophe in transformed BJ cells, but do not arrest normal BJ cells at the G1/S phase; Group 4: are inactive or weakly active; conditions: 5 μM, 48 h
Protocol: Cell death was assessed via Annexin V and/or PI (propidium iodide) staining according to the manufacturer's instructions (eBioscience). Cell growth arrest was assessed by direct measurement of DNA synthesis through incorporation of the nucleoside analog bromodeoxyuridine (BrdU). Briefly, BrdU (30 μM, Sigma-Aldrich) was added for 2 h before harvesting cells. Cells were subsequently stained with Pacific Blue-conjugated BrdU antibody (Invitrogen) for 1 h followed by PI staining. Stained cells were analyzed by MACSQuant (MACS). Three independent experiments were performed in triplicate. The percentage of Annexin V/PI- or BrdU-positive cells was quantified using Flow Jo software (Becton Dickinson). Where indicated, the combined activity of caspase-3/7 was determined using the caspase-Glo 3/7 Assay Kit (Promega) and normalized to the number of viable cells as determined by MTT assay.
Total cell lysates were prepared with 1% triton lysis buffer [25 mM Tris HCl (pH 8.0), 150 mM NaCl, 1% triton-X100, 1 mM dithiothreitol (DTT), protease inhibitor mix (Complete Mini, Roche) and phosphatase inhibitor (PhosphoStop, Roche)] and subjected to SDS-PAGE. The following antibodies were used for immunoblotting: anti-β-actin (Sigma-Aldrich), anti-cleaved PARP (Abcam, #ab32064), anti-PI5P4Kα (#5527), anti-PI5P4Kβ (#9694), anti-cleaved caspase-3 (#9664), anti-pHistone H3(Ser10) (#3377), anti-pAkt(S473) (#9271), anti-pAkt(T308) (#13038), anti-total Akt (#9272), anti-p70S6K(T389) (#9234), anti-total p70S6K (#9202), anti-pErk (#4370), anti-γ-Histone H2AX (#9718) (Cell signaling) and anti-PIK3IP1 (Proteintech, #16826-1-AP). The secondary antibodies used were sheep anti-mouse IgG HRP and donkey anti-rabbit IgG HRP (Amersham; 1:2000 dilution). Immunoreactive proteins were visualized using ECL reagent (Amersham). Where indicated, intensities of protein bands were quantified by densitometry (Odyssey V3.0), normalized to their loading controls and then calculated as fold expression change relative to DMSO control.

Huh7 = assay: MTT cytotoxicity test (GI50); type: cell-based; conditions: Homo sapiens, Huh-7; Huh7, cancer, liver; MTT 72 h
AGS = assay: MTT cytotoxicity test (GI50); type: cell-based; conditions: Homo sapiens, cancer, gastric, MTT 72 h
Pyridoxal kinase = target: T1, Pyridoxal kinase (Homo sapiens, UniProt O00764); assay: MS-CETSA in normal BJ cell lysates; type: binding; conditions: lysate, 100 μM compound
T1 construct: After collecting data covering >8,000 proteins in lysates of normal BJ cells; endogenous in cells; host or cells: normal BJ cells, lysate
T1 sequence (O00764 whole entry): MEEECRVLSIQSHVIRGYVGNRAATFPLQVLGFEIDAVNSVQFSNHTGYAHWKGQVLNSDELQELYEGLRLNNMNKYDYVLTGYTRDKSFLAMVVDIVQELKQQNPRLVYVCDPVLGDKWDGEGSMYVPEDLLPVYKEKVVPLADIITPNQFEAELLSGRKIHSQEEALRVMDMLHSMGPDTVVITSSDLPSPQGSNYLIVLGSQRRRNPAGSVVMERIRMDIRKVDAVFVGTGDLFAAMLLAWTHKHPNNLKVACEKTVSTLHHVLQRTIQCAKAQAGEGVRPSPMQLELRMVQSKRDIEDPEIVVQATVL
Protocol: Target identification was performed by cellular thermal shift assay (CETSA) coupled with quantitative mass spectrometry. In brief, normal BJ cells were lysed by combination of freeze/thaw and mechanical shearing with needle in buffer [50 mM HEPES (pH 7.5), 5 mM β-glycerophosphate, 0.1 mM Sodium Vanadate, 10 mM MgCl2, 1 mM TCEP and 1× Protease inhibitor Cocktail]. The cell debris was removed by centrifugation at 20,000 g for 20 min at 4° C. […] Each lysate was divided into 10 aliquots for heat treatment at the respective temperatures for 3 min in a 96-well thermocycler, followed by 3 min at 4° C. The lysate was centrifuged at 20,000 g for 20 min at 4° C. and the supernatant was transferred into microtubes for MS sample preparation.
After lysis, at least 100 μg of the protein (measured with a BCA assay) was subjected to reduction, denaturation and alkylation. Samples were subsequently incubated with sequencing grade LysC (Wako) and trypsin (Promega) for digestion overnight at 37° C. The digested samples were dried using a centrifugal vacuum evaporator, solubilized in 100 mM TEAB. […]
Proteins for which a low temperature plateau was not present were deleted using a cut off >0.85 for the average reading of the first three temperature points (in our experience proteins melting already at −37° C. are more prone to give false positives in a shift analysis).

N#C/C(=C\c1cccc2cnccc12)c1c[nH]c2ccccc12 [a131, (Z)-2-(1H-indol-3-yl)-3-(5-isoquinolyl)prop-2-enenitrile]
GI50 (NCC24): 1200 nM | GI50 (MDA-MB-231): 1100 nM | misaligned chromosomes / multipolar spindles in tumor sections ([1]; HCT-15 tumor sections, Day 12): caused massively misaligned chromosomes with multipolar spindles in tumor sections | antitumor activity (tumor volume) ([1]; a131 20 mg/kg, b5 40-80 mg/kg, PO or IP twice daily, 12 days, paclitaxel IV): marked antitumor efficacies | body weight loss ([1]; xenograft-bearing mice, PO or IP twice daily): without any body weight loss | GI50 (NCC59): 900 nM | GI50 (SCH): 1700 nM | Group (a131 SAR analysis) [2]: Group 1 | GI50 (Huh7): 1200 nM | GI50 (AGS): 1100 nM | ED score (Pyridoxal kinase): 0.4486 | ΔTm at 100 µM (Pyridoxal kinase; read-out: mean Delta Tm): 2.01 °C
